What follows are compounds tested against T1, human CCR1 (Homo sapiens, UniProt P32246) (assay: CCR1 binding protocol (SPA, [125I]-MIP-1α displacement)). Settings: cell membrane expressing human CCR1, 0.1 nM [125I]-MIP-1α, 4 hours at ambient temperature; read-out: Relative potency (IC50).
T1 sequence (P32246 1-355): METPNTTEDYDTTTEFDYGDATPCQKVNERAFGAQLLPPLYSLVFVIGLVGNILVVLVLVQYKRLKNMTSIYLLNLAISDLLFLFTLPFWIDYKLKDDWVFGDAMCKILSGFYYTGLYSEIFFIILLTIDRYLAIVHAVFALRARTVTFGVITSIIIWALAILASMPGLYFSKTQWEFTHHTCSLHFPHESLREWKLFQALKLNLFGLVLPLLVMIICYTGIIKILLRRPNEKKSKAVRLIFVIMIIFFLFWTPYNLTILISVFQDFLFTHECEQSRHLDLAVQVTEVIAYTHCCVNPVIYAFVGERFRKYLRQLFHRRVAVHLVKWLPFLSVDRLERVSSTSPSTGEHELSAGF
Method in brief: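 Displacement of 0.1 nM [125I]-MIP-1α (final) from membranes expressing human CCR1 was measured by scintillation proximity after 4 h at ambient temperature. Conditions: pH 7.4 Tris buffer with 0.1% BSA and MnCl, and 0.5 μg membrane per well. Compounds were tested as a 10-step ½-log series from a 10 mM DMSO stock to derive IC50.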

| SMILES | IC50 [nM] |
| --- | --- |
| Cc1nnc([C@H]2CCCN2C(=O)Nc2cc(C(N)=O)ccc2F)n1Cc1ccc(Cl)cc1 [Compound 294] | 50 to 500 |
| Cc1ccc(NC(=O)N2CCC[C@@H]2c2nnc(C)n2Cc2ccc(Cl)cc2)c(C(=O)N(C)C)c1 [Compound 295] | 50 to 500 |
| Cc1cc(C)c(NC(=O)N2CCC[C@@H]2c2nnc(C)n2Cc2ccc(Cl)cc2)c(C)n1 [Compound 296] | < 50 |
| Cc1onc(-c2ccc(F)cc2)c1NC(=O)N1CCC[C@@H]1c1nnc(C)n1Cc1ccc(Cl)cc1 [Compound 297] | < 50 |
| Cc1nnc([C@H]2CCCN2C(=O)Nc2cc(C(=O)O)ccc2Cl)n1Cc1ccc(Cl)cc1 [Compound 298] | 500 to 5000 |
| Cc1cnccc1NC(=O)N1CCC[C@@H]1c1nnc(C)n1Cc1ccc(Cl)cc1 [Compound 299] | 50 to 500 |
| Cc1cc(C(N)=O)ccc1NC(=O)N1CCC[C@@H]1c1nnc(C)n1Cc1ccc(Cl)cc1 [Compound 300] | 50 to 500 |
| CNC(=O)c1ccc(F)c(NC(=O)N2CCC[C@@H]2c2nnc(C)n2Cc2ccc(Cl)cc2)c1 [Compound 301] | 50 to 500 |
| Cc1nnc([C@H]2CCCN2C(=O)Nc2cc(C(=O)N(C)C)ccc2F)n1Cc1ccc(Cl)cc1 [Compound 302] | 50 to 500 |
| COc1ccc(-c2noc(C)c2NC(=O)N2CCC[C@@H]2c2nnc(C)n2Cc2ccc(Cl)cc2)cc1 [Compound 303] | < 50 |
| Cc1onc(-c2ccncc2)c1NC(=O)N1CCC[C@@H]1c1nnc(C)n1Cc1ccc(Cl)cc1 [Compound 304] | < 50 |
| CCOC1CCC(NC(=O)N2CCC[C@@H]2c2nnc(C)n2Cc2ccc(Cl)cc2)CC1 (some centres unmarked) [Compound 305] | 500 to 5000 |
| Cc1onc(-c2cccnc2)c1NC(=O)N1CCC[C@@H]1c1nnc(C)n1Cc1ccc(Cl)cc1 [Compound 306] | < 50 |
| Cc1nnc([C@H]2CCCN2C(=O)N[C@@H](C)c2cc3cc(Cl)ccc3o2)n1Cc1ccc(Cl)cc1 [Compound 307] | < 50 |
| O=C(N[C@H]1CCOc2cc(C(F)(F)F)ccc21)N1CCC[C@@H]1c1nnc(CO)n1Cc1ccc(Cl)cc1 [Compound 308] | < 50 |
| Cc1noc(-c2ccccc2)c1NC(=O)N1CCC[C@@H]1c1nnc(CO)n1Cc1ccc(Cl)cc1 [Compound 309] | < 50 |
| O=C(Nc1ccc(Cl)cc1F)N1CCC[C@@H]1c1nnc(CO)n1Cc1ccc(Cl)cc1 [Compound 310] | 50 to 500 |
| CCc1nnc([C@H]2CCCN2C(=O)NCc2ccc(C(F)(F)F)cc2)n1Cc1ccc(Cl)cc1 [Compound 311] | 50 to 500 |
| O=C(NCc1ccc(C(F)(F)F)cc1)N1CCC[C@@H]1c1nnc(CO)n1Cc1ccc(Cl)cc1 [Compound 312] | < 50 |
| O=C(NCc1ccc(Cl)cc1Cl)N1CCC[C@@H]1c1nnc(CO)n1Cc1ccc(Cl)cc1 [Compound 313] | < 50 |
| CC[C@H](NC(=O)N1CCC[C@@H]1c1nnc(C)n1Cc1ccc(Cl)cc1)c1ccc(C(F)(F)F)c(F)c1 [Compound 314] | 50 to 500 |
| CNC(=O)c1ccc(Cl)c(NC(=O)N2CCC[C@@H]2c2nnc(C)n2Cc2ccc(Cl)cc2)c1 [Compound 315] | 50 to 500 |
| Cc1ccnc(C)c1NC(=O)N1CCC[C@@H]1c1nnc(C)n1Cc1ccc(Cl)cc1 [Compound 316] | < 50 |
| COC(=O)c1ccc(C(F)(F)F)c(NC(=O)N2CCC[C@@H]2c2nnc(C)n2Cc2ccc(Cl)cc2)c1 [Compound 317] | 50 to 500 |
| COC(=O)c1cc(NC(=O)N2CCC[C@@H]2c2nnc(C)n2Cc2ccc(Cl)cc2)c(C)cc1C [Compound 318] | < 50 |
| Cc1noc(C)c1N/C(=N/C#N)N1CCC[C@@H]1c1nnc(C)n1Cc1ccc(Cl)cc1 [Compound 319] | 50 to 500 |
| Cc1nn(C)c(C)c1NC(=O)N1CCC[C@@H]1c1nnc(C)n1Cc1ccc(Cl)cc1 [Compound 320] | < 50 |

| SMILES | IC50 [nM] |
| --- | --- |
| Cc1nnc([C@H]2CCCN2C(=O)Nc2ccc3nonc3c2)n1Cc1ccc(Cl)cc1 [Compound 321] | 50 to 500 |
| Cc1ccc(C(C)(C)NC(=O)N2CCC[C@@H]2c2nnc(C)n2Cc2ccc(Cl)cc2)cc1 [Compound 322] | < 50 |
| Cc1noc(C)c1NC(=O)N1CCC[C@@H]1c1nnc(CO)n1Cc1ccc(Cl)cc1 [Compound 323] | 50 to 500 |
| Cc1noc(C)c1NC(=O)N1CCC[C@@H]1c1nnc(C)n1C1(c2ccc(Cl)cc2)CC1 [Compound 324] | 50 to 500 |
| Cc1nnc([C@H]2CCCN2C(=O)Nc2ccc(Cl)cc2F)n1C1(c2ccc(Cl)cc2)CC1 [Compound 325] | 50 to 500 |
| Cc1nc(C)c(NC(=O)N2CCC[C@@H]2c2nnc(C)n2Cc2ccc(Cl)cc2)c(C)n1 [Compound 326] | < 50 |
| Cc1nnc([C@H]2CCCN2C(=O)Nc2ccc3c(c2)N(C)C(=O)CO3)n1C1(c2ccc(Cl)cc2)CC1 [Compound 327] | 50 to 500 |
| Cc1nnc([C@H]2CCCN2C(=O)N[C@H]2CCOc3cc(C(F)(F)F)ccc32)n1C1(c2ccc(Cl)cc2)CC1 [Compound 328] | 50 to 500 |
| Cc1nnc([C@H]2CCCN2C(=O)NC2(c3ccccc3)CC2)n1C1(c2ccc(Cl)cc2)CC1 [Compound 329] | 50 to 500 |
| Cc1nnc([C@H]2CCCN2C(=O)Nc2ccc(S(C)(=O)=O)cc2)n1Cc1ccc(Cl)cc1 [Compound 330] | 50 to 500 |
| Cc1nnc([C@H]2CCCN2C(=O)Nc2ccc(S(C)(=O)=O)cc2Cl)n1Cc1ccc(Cl)cc1 [Compound 331] | 50 to 500 |
| Cc1nnc([C@H]2CCCN2C(=O)Nc2cc(C(N)=O)ccc2Cl)n1Cc1ccc(Cl)cc1 [Compound 332] | 50 to 500 |
| Cc1nnc([C@H]2CCCN2C(=O)NC2CCOCC2)n1Cc1ccc(Cl)cc1 [Compound 333] | 500 to 5000 |
| Cc1nnc([C@H]2CCCN2C(=O)Nc2cccc(S(C)(=O)=O)c2)n1Cc1ccc(Cl)cc1 [Compound 334] | 500 to 5000 |
| Cc1nnc([C@H]2CCCN2C(=O)Nc2cc(C(=O)O)ccc2C(F)(F)F)n1Cc1ccc(Cl)cc1 [Compound 335] | 500 to 5000 |
| Cc1nnc([C@H]2CCCN2C(=O)N[C@H]2CCOc3cc(C(F)(F)F)ccc32)n1Cc1cccc(Cl)c1 [Compound 336] | 500 to 5000 |
| Cc1nnc([C@H]2CCCN2C(=O)N[C@H]2CCOc3cc(C(F)(F)F)ccc32)n1[C@@H](C)c1ccc(Cl)cc1 [Compound 337] | 50 to 500 |
| N#Cc1ccc2c(c1)OCC[C@@H]2NC(=O)N1CCC[C@@H]1c1nnc(CO)n1Cc1ccc(Cl)cc1 [Compound 338] | < 50 |
| Cc1nnc([C@H]2CCCN2C(=O)Nc2ccc3c(c2)OCC(=O)N3C)n1Cc1ccc(Cl)cc1 [Compound 339] | 500 to 5000 |
| N#Cc1ccc2c(c1)OCC[C@H]2NC(=O)N1CCC[C@@H]1c1nnc(CO)n1Cc1ccc(Cl)cc1 [Compound 340] | < 50 |
| Cc1cc(NC(=O)N2CCC[C@@H]2c2nnc(C)n2Cc2ccc(Cl)cc2)n(-c2ccccc2)n1 [Compound 341] | < 50 |
| Cc1nnc([C@H]2CCCN2C(=O)Nc2ccc(Cl)cc2F)n1[C@@H](C)c1ccc(Cl)cc1 [Compound 342] | 500 to 5000 |
| Cc1nnc([C@H]2CCCN2C(=O)N[C@@H](C)C(C)C)n1Cc1ccc(Cl)cc1 [Compound 343] | 50 to 500 |
| Cc1nnc([C@H]2CCCN2C(=O)Nc2ncc(Cl)cn2)n1Cc1ccc(Cl)cc1 [Compound 344] | 500 to 5000 |
| Cc1nnc([C@H]2CCCN2/C(=N\C#N)N[C@H]2CCOc3cc(C#N)ccc32)n1Cc1ccc(Cl)cc1 [Compound 345] | 50 to 500 |
| Cc1cc(C)c(C(=O)O)cc1NC(=O)N1CCC[C@@H]1c1nnc(C)n1Cc1ccc(Cl)cc1 [Compound 346] | 50 to 500 |
